# Assay results reported in EPA's ToxValDB 9.5 (doi:10.2903/j.efsa.2010.1598).
# Experiments:
# Bibionidae = settings: chronic/long-term; duration: 28 days
# Oncorhynchus mykiss = settings: chronic/long-term; duration: 21 days; growth
# Colinus virginianus = settings: acute; oral; mortality
# Oryctolagus sp. = settings: developmental; development
# Ictalurus punctatus = settings: acute; duration: 96 hours; mortality
# Canidae = settings: acute; oral; Dog Other; mortality
# Daphnia magna = settings: chronic/long-term; duration: 21 days; reproduction
# Apis mellifera = settings: acute; dermal; mortality
structure (smiles),measurement,setting,value
COC(=O)Nc1nc2ccccc2[nH]1 [Carbendazim],NOEC,Bibionidae,0.0133 mg/L
same,NOEL,"Rattus norvegicus; chronic, organ weight",22.5 mg/kg-day
same,NOAEL,"Rattus norvegicus; developmental, development",10 mg/kg-day
same,NOEC,Oncorhynchus mykiss,0.0032 mg/L
same,LC50,"Tagia sp.; acute, duration: 14 days, mortality",5.4 mg/kg
same,NOEC,"Tagia sp.; chronic/long-term, duration: 56 days",1 mg/kg
same,LD50,Colinus virginianus,> 2250 mg/kg-day
same,NOAEL,Oryctolagus sp.,10 mg/kg-day
same,NOEL,Anas platyrhynchos; reproductive,24.6 mg/kg-day
same,LD50,"Anas platyrhynchos; short-term, oral, feed, mortality",615 mg/kg-day
same,LC50,Ictalurus punctatus,0.019 mg/L
same,LD50,Canidae,> 5000 mg/kg-day
same,NOEC,Daphnia magna,0.0015 mg/L
same,LD50,Apis mellifera,> 50 µg/piece
